Measurements published in patent US20060154243A1 (priority 2003, published 2006).

Key:
[1] = system: rabbit serum obtained by immunizing with SARS-CoV strain Frankfurt 1; assay type: binding
[2] = system: control serum LUMC (pooled serum of ten healthy hospital workers); assay type: binding, human
[3] = system: control serum Blood-bank (commercial negative donor pooled serum); assay type: binding, human

| Sequence | Rabbit serum linear peptides [1] | Rabbit serum looped peptides [1] | Control serum LUMC linear peptides [2] | Control serum LUMC looped peptides [2] | Control Serum Blood-Bank Looped peptides [3] | Control serum Blood-bank linear peptides [3] |
| --- | --- | --- | --- | --- | --- | --- |
| ADPKVYPIILRLGSQ | 0.4 | 0.3 | – | – | – | – |
| AFLLFLVLIMLIIFW | 0.5 | 1.0 | 0.4 | 0.4 | 0.8 | 0.8 |
| AFQSTPIVVQMTKLA | 0.1 | 0.5 | – | – | – | – |
| ALHLVDPQIQLTITR | 0.5 | 0.5 | – | – | – | – |
| AMGQGQNSADPKVYP | 0.1 | 0.6 | – | – | – | – |
| ARAFQSTPIVVQMTK | 0.2 | 0.7 | – | – | – | – |
| ARRNLDSLEARAFQS | 0.1 | 0.5 | – | – | – | – |
| ASNKPHVLEDPCKVQ | 0.8 | 0.9 | – | – | – | – |
| CASNKPHVLEDPCKV | 0.5 | 0.8 | – | – | – | – |
| CFLAFLLFLVLIMLI | 0.0 | 0.6 | 0.3 | 0.4 | 0.8 | 0.6 |
| CISLCSCICTVVQRC | 0.0 | 0.5 | – | – | – | – |
| DAMGQGQNSADPKVY | 0.3 | 0.4 | – | – | – | – |
| DFYLCFLAFLLFLVL | 0.3 | 0.4 | 0.4 | 0.6 | 0.6 | 0.7 |
| DPKVYPIILRLGSQL | 0.1 | 0.4 | – | – | – | – |
| DPQIQLTITRMEDAM | 0.1 | 0.3 | – | – | – | – |
| DSLEARAFQSTPIVV | 0.1 | 0.5 | – | – | – | – |
| EARAFQSTPIVVQMT | 0.1 | 0.4 | – | – | – | – |
| EDAMGQGQNSADPKV | 0.6 | 0.5 | – | – | – | – |
| ELTLIDFYLCFLAFL | 0.4 | 0.6 | 0.5 | 0.7 | 0.6 | 0.7 |
| FLAFLLFLVLIMLII | 0.3 | 0.7 | 0.5 | 0.4 | 0.7 | 0.7 |
| FLLFLVLIMLIIFWF | 0.5 | 0.7 | 0.3 | 0.5 | 0.6 | 0.9 |
| FLVLIMLIIFWFSLE | 0.4 | 0.6 | 0.7 | 0.7 | 0.8 | 0.9 |

| Sequence | Rabbit serum linear peptides [1] | Rabbit serum looped peptides [1] | Control serum LUMC linear peptides [2] | Control serum LUMC looped peptides [2] | Control Serum Blood-Bank Looped peptides [3] | Control serum Blood-bank linear peptides [3] |
| --- | --- | --- | --- | --- | --- | --- |
| FQSTPIVVQMTKLAT | 0.1 | 0.6 | – | – | – | – |
| FYLCFLAFLLFLVLI | 0.3 | 0.6 | 0.4 | 0.6 | 0.7 | 0.8 |
| GQGQNSADPKVYPII | 0.4 | 0.5 | – | – | – | – |
| GQNSADPKVYPIILR | 0.1 | 0.6 | – | – | – | – |
| GSQLSLSMARRNLDS | 0.1 | 0.7 | – | – | – | – |
| HLVDPQIQLTITRME | 0.1 | 0.3 | – | – | – | – |
| IDFYLCFLAFLLFLV | 0.4 | 0.5 | 0.5 | 0.7 | 0.6 | 0.9 |
| IILRLGSQLSLSMAR | 0.6 | 0.5 | – | – | – | – |
| ILRLGSQLSLSMARR | 0.1 | 0.7 | – | – | – | – |
| IQLTITRMEDAMGQG | 0.0 | 0.2 | – | – | – | – |
| ISLCSCICTVVQRCA | 0.1 | 0.5 | – | – | – | – |
| IVLTCISLCSCICTV | 0.1 | 0.6 | – | – | – | – |
| IVVQMTKLATTEELP | 0.2 | 0.4 | – | – | – | – |
| KLLIVLTCISLCSCI | 0.0 | 0.5 | – | – | – | – |
| KVYPIILRLGSQLSL | 1.8 | 0.5 | – | – | – | – |
| LAFLLFLVLIMLIIF | 0.4 | 1.1 | 0.3 | 0.4 | 0.8 | 0.6 |
| LCSCICTVVQRCASN | 0.1 | 1.1 | – | – | – | – |
| LDSLEARAFQSTPIV | 0.1 | 0.5 | – | – | – | – |
| LEARAFQSTPIVVQM | 0.1 | 0.5 | – | – | – | – |
| LGSQLSLSMARRNLD | 0.1 | 0.3 | – | – | – | – |
| LHLVDPQIQLTITRM | 0.5 | 0.6 | – | – | – | – |
| LIVLTCISLCSCICT | 0.1 | 0.5 | – | – | – | – |

| Sequence | Rabbit serum linear peptides [1] | Rabbit serum looped peptides [1] | Control serum LUMC linear peptides [2] | Control serum LUMC looped peptides [2] | Control Serum Blood-Bank Looped peptides [3] | Control serum Blood-bank linear peptides [3] |
| --- | --- | --- | --- | --- | --- | --- |
| LLIVLTCISLCSCIC | 0.1 | 0.5 | – | – | – | – |
| LRLGSQLSLSMARRN | 0.1 | 0.5 | – | – | – | – |
| LSLSMARRNLDSLEA | 0.1 | 0.3 | – | – | – | – |
| LSMARRNLDSLEARA | 0.0 | 0.4 | – | – | – | – |
| LTCISLCSCICTVVQ | 0.1 | 0.2 | – | – | – | – |
| LVDPQIQLTITRMED | 0.1 | 0.2 | – | – | – | – |
| MARRNLDSLEARAFQ | 0.1 | 0.5 | – | – | – | – |
| MDPNQTNVVPPALHL | 1.1 | 0.1 | – | – | – | – |
| MGQGQNSADPKVYPI | 0.1 | 0.6 | – | – | – | – |
| MKLLIVLTCISLCSC | 0.1 | 0.5 | – | – | – | – |
| NLDSLEARAFQSTPI | 0.2 | 0.4 | – | – | – | – |
| NSADPKVYPIILRLG | 0.1 | 0.4 | – | – | – | – |
| PIILRLGSQLSLSMA | 0.1 | 0.5 | – | – | – | – |
| PIVVQMTKLATTEEL | 0.1 | 0.6 | – | – | – | – |
| PKVYPIILRLGSQLS | 0.1 | 0.4 | – | – | – | – |
| PQIQLTITRMEDAMG | 0.0 | 0.2 | – | – | – | – |
| QGQNSADPKVYPIIL | 0.1 | 0.5 | – | – | – | – |
| QIQLTITRMEDAMGQ | 0.1 | 0.2 | – | – | – | – |
| QLSLSMARRNLDSLE | 0.1 | 0.3 | – | – | – | – |
| QLTITRMEDAMGQGQ | 0.1 | 0.4 | – | – | – | – |
| QNSADPKVYPIILRL | 0.1 | 0.1 | – | – | – | – |
| QSTPIVVQMTKLATT | 0.0 | 0.6 | – | – | – | – |

| Sequence | Rabbit serum linear peptides [1] | Rabbit serum looped peptides [1] | Control serum LUMC linear peptides [2] | Control serum LUMC looped peptides [2] | Control Serum Blood-Bank Looped peptides [3] | Control serum Blood-bank linear peptides [3] |
| --- | --- | --- | --- | --- | --- | --- |
| RAFQSTPIVVQMTKL | 0.1 | 0.7 | – | – | – | – |
| RLGSQLSLSMARRNL | 0.1 | 2.5 | – | – | – | – |
| RNLDSLEARAFQSTP | 0.3 | 0.5 | – | – | – | – |
| RRNLDSLEARAFQST | 0.3 | 0.5 | – | – | – | – |
| SADPKVYPIILRLGS | 0.1 | 0.4 | – | – | – | – |
| SLCSCICTVVQRCAS | 0.1 | 0.2 | – | – | – | – |
| SLEARAFQSTPIVVQ | 0.1 | 0.6 | – | – | – | – |
| SLSMARRNLDSLEAR | 0.1 | 0.4 | – | – | – | – |
| SMARRNLDSLEARAF | 0.1 | 0.4 | – | – | – | – |
| SNKPHVLEDPCKVQH | 0.8 | 0.4 | – | – | – | – |
| SQLSLSMARRNLDSL | 0.1 | 0.4 | – | – | – | – |
| STPIVVQMTKLATTE | 0.1 | 0.5 | – | – | – | – |
| TCISLCSCICTVVQR | 0.0 | 0.5 | – | – | – | – |
| TPIVVQMTKLATTEE | 0.1 | 0.4 | – | – | – | – |
| TTEELPDEFVVVTAK | 0.0 | 0.5 | – | – | – | – |
| VDPQIQLTITRMEDA | 0.0 | 0.4 | – | – | – | – |
| VLTCISLCSCICTVV | 0.0 | 0.4 | – | – | – | – |
| VYPIILRLGSQLSLS | 0.6 | 1.0 | – | – | – | – |
| YPIILRLGSQLSLSM | 0.2 | 0.4 | – | – | – | – |
